Test results taken from patent US20220144854A1, “MACROCYCLIC COMPOUNDS” (ZENO MANAGEMENT, INC., priority 2019, published 2022).

System: NCI-H929 (ATCC CRL-9068) cells
Experiment: NCI-H929 cell proliferation assay (CellTiter-Glo)
Format: cell-based
Settings: 72 h of compound treatment
Protocol: Cell proliferation was measured using the CellTiter-Glo® Luminescent Cell Viability Assay. The assay involved the addition of a single reagent (CellTiter-Glo® Reagent) directly to cells cultured in serum-supplemented medium.
Each compound evaluated was prepared as a DMSO stock solution (10 mM). Compounds were tested in duplicate on each plate, with a 10-point serial dilution curve (1:3 dilution). Compound treatment ([…]) was added from the compound dilution plate to the cell plate. The highest compound concentration was 10 μM (final), with a 0.1% final DMSO concentration. Plates were then incubated at 37° C., 5% CO2. After 72 h of compound treatment, cell plates were equilibrated at rt for approximately 30 mins. An equi-volume amount of CellTiter-Glo® Reagent (40 μL) was added to each well. Plates were mixed for 2 mins on an orbital shaker to induce cell lysis and then incubated at rt for 10 mins to stabilize the luminescent signal. Luminescence was recorded using an Envision plate reader according to CellTiter-Glo protocol. IC50 of each compound was calculated using GraphPad Prism by nonlinear regression analysis.

| Molecule | IC50 | IC50 (Homo sapiens, NCI-H929, 72 h) |
| --- | --- | --- |
| COc1ccc(Cn2nc3c(c2C)-c2c(Cl)ccc4c(c(C(=O)O)n(C)c24)CCCOc2cc(cc4ccccc24)SCc2cc(nn2C(C)C)CSC3)cc1 (single isomer, unassigned) [Example 8B, (Z)-1^6-Chloro-6^1-isopropyl-2^1-(4-methoxybenzyl)-1^1,2^5-dimethyl-1^1H,2^1H,6^1H-10-oxa-4,8-dithia-1(7,3)-indola-2(4,3),6(3,5)-dipyrazola-9(3,1)-naphthalenacyclotridecaphane-1^2-carboxylic acid] | 100 to 1000 nM | – |
| Cc1nn(C)c2c1-c1c(F)ccc3c(c(C(=O)O)n(C)c13)CCCOc1cc(cc3ccccc13)SCc1cc(nn1C(C)C)CSC2 (single isomer, unassigned) [Example 16B, (Z)-1^6-Fluoro-6^1-isopropyl-1^1,2^1,2^3-trimethyl-1^1H,2^1H,6^1H-10-oxa-4,8-dithia-1(7,3)-indola-2(4,5),6(3,5)-dipyrazola-9(3,1)-naphthalenacyclotridecaphane-1^2-carboxylic acid] | > 1000 nM | – |
| Cc1nn(C)c2c1-c1c(F)ccc3c(c(C(=O)O)n(C)c13)CCCOc1cc(cc3ccccc13)SCc1cc(nn1CC(C)C)CSC2 (single isomer, unassigned) [Example 17B, (Z)-1^6-Fluoro-6^1-isobutyl-1^1,2^1,2^3-trimethyl-1^1H,2^1H,6^1H-10-oxa-4,8-dithia-1(7,3)-indola-2(4,5),6(3,5)-dipyrazola-9(3,1)-naphthalenacyclotridecaphane-1^2-carboxylic acid] | 100 to 1000 nM | – |
| Cc1nn(C)c2c1-c1c(Cl)ccc3c(c(C(=O)O)n(C)c13)CCCOc1cc(cc3ccccc13)SCc1cc(nn1C)CSC2 (single isomer, unassigned) [Example 19A, (Z)-1^6-Chloro-1^1,2^1,2^3,6^1-tetramethyl-1^1H,2^1H,6^1H-10-oxa-4,8-dithia-1(7,3)-indola-2(4,5),6(3,5)-dipyrazola-9(3,1)-naphthalenacyclotridecaphane-1^2-carboxylic acid] | > 1000 nM | – |
| Cc1nn(C)c2c1-c1c(Cl)ccc3c(c(C(=O)O)n(C)c13)CCCOc1cc(cc3ccccc13)SCc1cc(nn1C)CSC2 (single isomer, unassigned) [Example 19B, (Z)-1^6-Chloro-1^1,2^1,2^3,6^1-tetramethyl-1^1H,2^1H,6^1H-10-oxa-4,8-dithia-1(7,3)-indola-2(4,5),6(3,5)-dipyrazola-9(3,1)-naphthalenacyclotridecaphane-1^2-carboxylic acid] | < 100 nM | – |
| Cn1nc2cc1CCc1cc(c3ccccc3c1)OCCCc1c(C(=O)O)n(C)c3c(c(Cl)ccc13)-c1c(nn3c1CCCC3)CNC2 (single isomer, unassigned) [Example 27A, (Z)-1^6-Chloro-1^1,6^1-dimethyl-2^4,2^5,2^6,2^7-tetrahydro-1^1H,6^1H-10-oxa-4-aza-2(3,2)-pyrazolo[1,5-a]pyridina-1(7,3)-indola-6(3,5)-pyrazola-9(3,1)-naphthalenacyclotridecaphane-1^2-carboxylic acid] | 100 to 1000 nM | – |
| Cc1c2c(nn1C)CSCc1cc(n(C)n1)CSc1cc(c3ccccc3c1)OCCCc1c(C(=O)O)n(C)c3c-2c(Cl)ccc13 [AZD5991, reference compound] | – | < 100 nM |
| Cc1[nH]nc2c1-c1c(Cl)ccc3c(c(C(=O)O)n(C)c13)CCCOc1cc(cc3ccccc13)SCc1cc(nn1C(C)C)CSC2 [Example 9B, (Z)-1^6-Chloro-6^1-isopropyl-1^1,2^5-dimethyl-1^1H,2^1H,6^1H-10-oxa-4,8-dithia-1(7,3)-indola-2(4,3),6(3,5)-dipyrazola-9(3,1)-naphthalenacyclotridecaphane-1^2-carboxylic acid] | – | > 1000 nM |
| Cc1c2c(nn1C)CSCc1cc(n(C)n1)CSc1cc(c3ccccc3c1)OCCCc1c(C(=O)O)n(C)c3c-2c(F)ccc13 [Example 14B, (Z)-1^6-Fluoro-1^1,2^1,2^5,6^1-tetramethyl-1^1H,2^1H,6^1H-10-oxa-4,8-dithia-1(7,3)-indola-2(4,3),6(3,5)-dipyrazola-9(3,1)-naphthalenacyclotridecaphane-1^2-carboxylic acid] | > 1000 nM | – |
| Cc1nn(C23CC(C2)C3)c2c1-c1c(Cl)ccc3c(c(C(=O)O)n(C)c13)CCCOc1cc(cc3ccccc13)SCc1cc(n[nH]1)CSC2 [Example 21A, (Z)-2^1-(Bicyclo[1.1.1]pentan-1-yl)-1^6-chloro-1^1,2^3-dimethyl-1^1H,2^1H,6^1H-10-oxa-4,8-dithia-1(7,3)-indola-2(4,5),6(3,5)-dipyrazola-9(3,1)-naphthalenacyclotridecaphane-1^2-carboxylic acid] | – | > 1000 nM |
| Cn1nc2cc1CCc1cc(c3ccccc3c1)OCCCc1c(C(=O)O)n(C)c3c(c(Cl)ccc13)-c1c(nn3c1CCC3)CNC2 [Example 26B, (Z)-1^6-chloro-1^1,6^1-dimethyl-2^5,2^6-dihydro-1^1H,2^4H,6^1H-10-oxa-4-aza-1(7,3)-indola-2(3,2)-pyrrolo[1,2-b]pyrazola-6(3,5)-pyrazola-9(3,1)-naphthalenacyclotridecaphane-1^2-carboxylic acid] | > 1000 nM | – |
| (Z)-1^6-Fluoro-6^1-isobutyl-1^1,2^1,2^3-trimethyl-1^1H,2^1H,6^1H-10-oxa-4,8-dithia-1(7,3)-indola-2(4,5),6(3,5)-dipyrazola-9(3,1)-naphthalenacyclotridecaphane-1^2-carboxylic acid [Example 18B] | 100 to 1000 nM | – |

The next lines start with the values.

| IC50 | IC50 (Homo sapiens, NCI-H929, 72 h) | Molecule |
| --- | --- | --- |
| > 1000 nM | – | COc1ccc(Cn2nc3c(c2C)-c2c(Cl)ccc4c(c(C(=O)O)n(C)c24)CCCOc2cc(cc4ccccc24)SCc2cc(nn2C(C)C)CSC3)cc1 (single isomer, unassigned) [Example 8A, (Z)-1^6-Chloro-6^1-isopropyl-2^1-(4-methoxybenzyl)-1^1,2^5-dimethyl-1^1H,2^1H,6^1H-10-oxa-4,8-dithia-1(7,3)-indola-2(4,3),6(3,5)-dipyrazola-9(3,1)-naphthalenacyclotridecaphane-1^2-carboxylic acid] |
| > 1000 nM | – | Cn1nc2cc1CCc1cc(c3ccccc3c1)OCCCc1c(C(=O)O)n(C)c3c(c(Cl)ccc13)-c1c(nn3c1CCCC3)CNC2 (single isomer, unassigned) [Example 27B, (Z)-1^6-Chloro-1^1,6^1-dimethyl-2^4,2^5,2^6,2^7-tetrahydro-1^1H,6^1H-10-oxa-4-aza-2(3,2)-pyrazolo[1,5-a]pyridina-1(7,3)-indola-6(3,5)-pyrazola-9(3,1)-naphthalenacyclotridecaphane-1^2-carboxylic acid] |
| – | 100 to 1000 nM | CO[C@H]1/C=C/C[C@H](C)[C@@H](C)S(=O)(=O)NC(=O)c2ccc3c(c2)N(C[C@@H]2CC[C@H]21)C[C@@]1(CCCc2cc(Cl)ccc21)CO3 [AMG176, reference compound] |
| > 1000 nM | – | Cc1c2c(nn1C)CSCc1cc([nH]n1)CSc1cc(c3ccccc3c1)OCCCc1c(C(=O)O)n(C)c3c-2c(Cl)ccc13 [Example 11A, (Z)-1^6-Chloro-1^1,2^1,2^5-trimethyl-1^1H,2^1H,6^1H-10-oxa-4,8-dithia-1(7,3)-indola-2(4,3),6(3,5)-dipyrazola-9(3,1)-naphthalenacyclotridecaphane-1^2-carboxylic acid] |
| 100 to 1000 nM | – | Cc1c2c(nn1C)CSCc1cc(n(C)n1)CSc1cc(c3cc(Cl)ccc3c1)OCCCc1c(C(=O)O)n(C)c3c-2c(Cl)ccc13 [Example 12A, (Z)-1^6,9^7-Dichloro-1^1,2^1,2^5,6^1-tetramethyl-1^1H,2^1H,6^1H-10-oxa-4,8-dithia-1(7,3)-indola-2(4,3),6(3,5)-dipyrazola-9(3,1)-naphthalenacyclotridecaphane-1^2-carboxylic acid] |
| > 1000 nM | – | Cc1c2c(nn1C)CSCc1cc(n(C)n1)CSc1cc(c3ccccc3c1)OCCCc1c(C(=O)O)n(C)c3c-2c(Cl)cc(Cl)c13 [Example 13A, (Z)-1^4,1^6-dichloro-1^1,2^1,2^5,6^1-tetramethyl-1^1H,2^1H,6^1H-10-oxa-4,8-dithia-1(7,3)-indola-2(4,3),6(3,5)-dipyrazola-9(3,1)-naphthalenacyclotridecaphane-1^2-carboxylic acid] |
| – | 100 to 1000 nM | Cn1nc2cc1CSc1cc(c3ccccc3c1)OCCCc1c(C(=O)O)n(C)c3c(c(Cl)ccc13)-c1c(nn3c1CNCC3)CSC2 [Example 23B, (Z)-1^6-Chloro-1^1,6^1-dimethyl-2^4,2^5,2^6,2^7-tetrahydro-1^1H,6^1H-10-oxa-4,8-dithia-2(3,2)-pyrazolo[1,5-a]pyrazina-1(7,3)-indola-6(3,5)-pyrazola-9(3,1)-naphthalenacyclotridecaphane-1^2-carboxylic acid] |
| – | 100 to 1000 nM | CC(=O)N1CCn2nc3c(c2C1)-c1c(Cl)ccc2c(c(C(=O)O)n(C)c12)CCCOc1cc(cc2ccccc12)SCc1cc(nn1C)CSC3 [Example 24A, (Z)-2^5-Acetyl-1^6-chloro-1^1,6^1-dimethyl-2^4,2^5,2^6,2^7-tetrahydro-1^1H,6^1H-10-oxa-4,8-dithia-2(3,2)-pyrazolo[1,5-a]pyrazina-1(7,3)-indola-6(3,5)-pyrazola-9(3,1)-naphthalenacyclotridecaphane-1^2-carboxylic acid] |
| – | 100 to 1000 nM | CN1CCn2nc3c(c2C1)-c1c(Cl)ccc2c(c(C(=O)O)n(C)c12)CCCOc1cc(cc2ccccc12)SCc1cc(nn1C)CSC3 [Example 25A, (Z)-1^6-chloro-1^1,2^5,6^1-trimethyl-2^4,2^5,2^6,2^7-tetrahydro-1^1H,6^1H-10-oxa-4,8-dithia-2(3,2)-pyrazolo[1,5-a]pyrazina-1(7,3)-indola-6(3,5)-pyrazola-9(3,1)-naphthalenacyclotridecaphane-1^2-carboxylic acid] |
| – | 100 to 1000 nM | Cn1nc2cc1CSc1cc(c3ccccc3c1)OCCCc1c(C(=O)O)n(C)c3c(c(Cl)ccc13)-c1c(nn3c1CCC3)CNC2 [Example 26A] |
